Data as given in patent publication US10000771B2, “Nuclear targeting sequences” (Yeda Research and Development Co. Ltd., priority 2007, dated 2018).
Ends that are not written are not given here.

Tests used:
endogenous ERKs = assay: Effect of 2GFP chimeras on nuclear translocation of endogenous ERKs; format: cell-based; conditions: CHO cells overexpressing the chimera, TPA 250 nM, 15 min
Protocol: FIGS. 10A-10X illustrate the effects of the 2GFP chimeras on the nuclear translocation of endogenous ERKs. CHO cells overexpressing 2GFP, 2GFP-SPS, 2GFP-APA and 2GFP-EPE were serum starved and treated with or without TPA (250 nM, 15 min). Subsequently, the cells were fixed and stain with anti-ERK2 (C-14) Ab and with DAPI.
(§1) Immunofluorescence Microscopy. Cells were fixed (30 min in 3% paraformaldehyde in PBS or 10 min with ice-cold methanol), followed by 5-min permeabilization with 0.2% Triton X-100 in PBS (23° C.). The fixed cells were sequentially incubated with the appropriate Abs (45 min) followed by rhodamine-conjugated secondary Abs (45 min) and DAPI. Slides were visualized using a fluorescence microscope (Nikon, Japan) at 400× magnifications.

CHO cells [1] = assay: Fluorescence microscopy of 2GFP chimeras (subcellular localization); format: cell-based; conditions: 24 hr post transfection, serum-starved
Protocol: FIGS. 8A-8H are photomicrographs illustrating that SPS, APA, and EPE peptides fused to a 2GFP chimera modify its subcellular localization. CHO cells were grown on cover slips and transfected with 19 amino acid from the kinase insert domain of ERK2 including the SPS region (GFP-SPS) fused to a 2GFP chimera and with the same chimeras with substitution of the Ser to Ala (GFP-APA) or substitution to Glu (GFP-EPE). Twenty-four hr later, the cells were serum-starved for 16 hr, fixed, stained with DAPI and visualized by a fluorescence microscope.
as §1
To validate the general importance of the SPS domain, a 19 amino acid sequence surroundings the SPS or the APA and EPE mutants was fused to a dimer of GFP proteins (2GFP). Cellular distribution of the chimeras was detected in CHO cells 24 hr post transfection of the GFP constructs.

importin-7 = molecular target: T1, importin-7 (Homo sapiens, UniProt O95373); assay: Coimmunoprecipitation with importin-7; format: binding; conditions: HeLa cells, coimmunoprecipitation, without EGF stimulation
T1 construct: endogenous in cells; host or cells: HeLa
T1 sequence (O95373 whole entry): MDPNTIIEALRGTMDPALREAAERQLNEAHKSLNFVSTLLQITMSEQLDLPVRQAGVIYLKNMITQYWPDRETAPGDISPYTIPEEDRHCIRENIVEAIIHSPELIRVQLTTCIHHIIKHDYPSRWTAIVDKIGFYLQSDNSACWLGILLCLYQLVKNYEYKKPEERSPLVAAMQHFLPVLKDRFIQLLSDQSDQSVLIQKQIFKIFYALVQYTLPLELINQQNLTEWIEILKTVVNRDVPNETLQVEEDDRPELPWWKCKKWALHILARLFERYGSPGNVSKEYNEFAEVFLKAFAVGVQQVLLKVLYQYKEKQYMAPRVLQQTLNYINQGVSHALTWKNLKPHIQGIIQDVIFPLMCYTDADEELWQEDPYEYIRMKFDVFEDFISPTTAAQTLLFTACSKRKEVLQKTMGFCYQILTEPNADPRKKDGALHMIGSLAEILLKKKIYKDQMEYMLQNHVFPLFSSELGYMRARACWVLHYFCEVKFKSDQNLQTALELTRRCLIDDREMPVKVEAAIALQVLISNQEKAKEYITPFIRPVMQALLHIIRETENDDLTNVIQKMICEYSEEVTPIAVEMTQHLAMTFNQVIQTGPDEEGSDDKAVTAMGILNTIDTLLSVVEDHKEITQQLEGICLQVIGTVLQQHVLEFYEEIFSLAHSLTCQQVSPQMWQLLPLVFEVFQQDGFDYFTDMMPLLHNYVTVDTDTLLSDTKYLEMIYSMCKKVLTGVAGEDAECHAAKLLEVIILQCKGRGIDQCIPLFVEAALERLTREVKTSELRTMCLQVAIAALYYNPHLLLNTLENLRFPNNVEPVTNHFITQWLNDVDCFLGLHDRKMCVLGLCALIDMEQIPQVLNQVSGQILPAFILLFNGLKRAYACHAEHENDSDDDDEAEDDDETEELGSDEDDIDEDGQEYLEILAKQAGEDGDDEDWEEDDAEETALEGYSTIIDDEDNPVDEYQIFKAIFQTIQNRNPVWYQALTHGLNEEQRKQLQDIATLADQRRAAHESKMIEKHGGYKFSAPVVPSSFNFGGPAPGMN
Protocol: FIGS. 19A-19C are autoradiographs illustrating that phospho-SPS interacts with importin-7 and releases Nup153c binding without involvment of importin-β. […]. Interaction of ERK2 with Importin-7 is enhanced by EGF stimulation and EPE mutation. HeLa cells overexpressing WT-ERK (WT), ERK-APA (APA), ERK-EPE (EPE) or GFP were serum starved and treated with EGF (50 ng/ml, 10 min). The extracts of the treated cells were then subjected to coimmunoprecipitation using A/G beads pre-conjugated with anti GFP Ab and mild washes. The coimmunoprecipitated importin-7 (first panel) and importin-β (third panel), as well as their loading amounts (panels 2 and 4 respectively) were determined by WB using anti importin-7 (αImp7) and importin-β (αImpβ) Abs. The equal amount of immunoprecipitated ERKs was determined with anti GFP (αGFP; IP) Ab. FIG. 19B. Interaction of 2GFP-SPS and its mutants with importin-7. HeLa cells overexpressing 2GFP, 2GFP-SPS, 2GFP-APA and 2GFP-EPE constructs were subjected to coimmunoprecipitation as described in FIG. 19A (without EGF stimulation). FIG. 19C. Interaction of NUP153 with WTERK2 and its APA and EPE mutants. NUP153c is elevated in APA-ERK2, but reduced in EPE-ERK2. Immunoprecipitated and stringently washed WT-ERK2 (WT), APA-ERK2 (APA) or ERK2 from […] cells pre-treated with or without TPA (250 nM, 15 min) were incubated with 0.5 μg recombinant His-Nup153c. This was followed by mild washing, and the beads were then subjected to Western blot analysis using anti His (αHis) and anti αGFP Abs.
Immunoprecipitation. Cellular extracts of stimulated transfected cells, were incubated with anti-GFP antibody preconugated to A/G beads (Santa Cruz; (2 hr, 4° C.). Subsequently, the beads were washed twice with HNTG buffer and once with 0.5 M LiCl. The immunoprecipitates were subjected either to Western blotting as described above or to an in vitro phosphatase assay as described under Results.

COS7 cells = assay: Subcellular fractionation of 2GFP chimeras; format: cell-based
Protocol: FIG. 9A is an autoradiograph illustrating the subcellular fractionation of transfected SPS, APA, and EPE peptides fused to a 2GFP in COS7 cells. Western blot analysis of aliquots of the fractions were stained with anti GFP Ab to detect the different chimaras, and with anti tubulin and anti c-Jun Abs as markers for the cytoplasmic and nuclear fractions respectively.
Cellular Fractionation: Transfected COS7 cells were starved (0.1% FBS) for 16 h, after which they were washed with ice-cold PBS, suspended in ice-cold buffer H, and centrifuged (12,000×g, 5 min). Then, the nuclear and cytosolic fractions were isolated as described [H. Rubinfeld, T. Hanoch, R. Seger, J. Biol. Chem. 274, 30349 (1999)]. Briefly, the pellets were suspended in 0.1% NP-40 followed by centrifugation (12,000×g, 5 min). The supernatant, containing the cytosolic fraction, was boiled in sample buffer. The pellet was suspended in extraction buffer (420 mM Nacl, 50 mM β-glycerophosphate, 0.5 mM Na3VO4, 1.5 mM MgCl2, 0.2 mM EDTA, 1 mM DTT, 25% glycerol), incubate on ice for 10 min, sonicated (50 W, 2×7 sec), and centrifuged (12,000×g, 5 min). The supernatant, containing the nuclear fraction, was subjected to Western blot.

SPS domain = assay: SPS phosphorylation detected by anti pSPS Ab Western blot; format: cell-based; conditions: cells pretreated (15 min) prior to EGF 50 ng/ml stimulation
Protocol: FIGS. 4A-4I are autoradiographs characterizing SPS phosphorylation using an Ab to the phosphorylated SPS domain. FIG. 4A illustrates an elevation of pSPS detection upon stimulation. COS cells were transfected with WT-GFP-ERK2. Twenty-four hr after transfection, the cells were serum-starved for 16 hr and subsequently treated with the general stimulator VOOH (V, 100 μM Na3VO4 and 200 μM H2O2, 15 min), TPA (T, 250 nM, 15 min), EGF (E, 50 ng/ml for 15 min), or left untreated (NT). The GFP-ERK2 was immunoprecipitated with anti GFP Ab, extensively washed, and the IP was then subjected to Western blotting with anti phospho SPS-ERK (αphoSPS-ERK) and anti general ERK (αgen-ERK) Abs. FIG. 4B is a time course of SPS phosphorylation. COS7 cells overexpressing WT-GFP-ERK2 were serum starved followed by EGF stimulation for the indicated time points. The lysates were then subjected to Western blot analysis as in FIG. 4A. FIGS. 4C-D. GFP-ERK2 was immunoprecipitated from VOOH stimulated (Act) or non-stimulated (NT), transfected COS7 cells as above. The immunoprecipitated protein was then incubated with shrimp's alkaline phosphates (SAP, 15 units, 30 min, 30° C. in the manufacturer digestion buffer), and subjected to Western blot analysis with anti phosphoSPS-ERK (αpSPS; FIG. 4C), anti phosphoTEY-ERK (αpTEY; FIG. 4D), and anti general-ERK Ab (αgen-ERK; FIGS. 4C, D). FIG. 4E. Elevation of anti pSPS Ab immunoreactivity upon stimulation of endogenous ERKs. Following serum starvation COS7 cells were treated with EGF (50 ng/ml) or VOOH (V, 100 μM Na3VO4 and 200 μM H2O2) for the indicated times. SPS phosphorylation was detected using the anti pSPS Abs, and this was compared to the amount of genral ERKs detected by αgERK. FIG. 4F. Specificity of the anti pSPS Ab. COS7 cells overexpressing either GFP-ERK2 or 244-6A mutant were serum starved for 16 hr, and then treated with EGF (50 ng/ml) for 15 min following WB analysis using αpSPS and αgERK Abs. FIG. 4G. TEY phosphorylation is not required for SPS phosphorylation. COS7 cells overexpressing WT-ERK2 or TEY-AAA were treated as described in D. FIG. 4H. COS7 cells were treated with or without UO126 prior (15 min) to EGF (50 ng/ml) stimulation for the indicated times. SPS-phosphorylation was detected using αpSPS and αgERK Abs. FIG. 4I. Phosphorylation of SPS is mediated by ERK autophosphorylation. […] The phosphorylation (^32P-ERK2) of ERK and its mutants was detected by autoradiography. […]
FIG. 9B is an autoradiograph illustrating that stimulation elevates pSPS phosphorylation of 2GFP-SPS construct. […] The total amount of immunoprecipitated 2GFP-SPS was detected with αGFP Ab. […]

CHO cells [2] = assay: Microscopy of MEK1-GFP constructs (subcellular localization); format: cell-based
Protocol: FIGS. 14A-14R are photomicrographs illustrating that the NTS motif regulates MEK1 shuttling into the nucleus. CHO cells overexpressing WT-GFP-MEK1 (WT), AAA-GFP-MEK1 (AAA-MEK) and EPE-GFP-MEK1 (EPE-MEK) were starved for 16 hr and treated with LMB (5 ng/ml, 1 hr; LMB), LMB (5 ng/ml, 1 hr)+TPA (250 nM, 15 min; LMB+TPA) or left un treated (NT). Subsequently the cells were fixed, stained with DAPI and visualized by a fluorescent microscope.
as §1
Other proteins that translocate into the nucleus upon stimulation are the MEKs [H. Jaaro, H. Rubinfeld, T. Hanoch, R. Seger, Proc. Natl. Acad. Sci. USA 94, 3742 (1997)]. […] This TPT sequence was also shown to be phosphorylated upon cellular stimulation [S. Matsuda, Y. Gotoh, E. Nishida, J Biol Chem 268, 3277 (Feb. 15, 1993)], and to be involved in protein-protein interaction that can determine subcellular localization [A. Nantel, K. Mohammad-Ali, J. Sherk, B. I. Posner, D. Y. Thomas, J Biol Chem 273, 10475 (Apr. 24, 1998). […]

| Molecule | inhibition of TPA-induced translocation of endogenous ERKs (endogenous ERKs) | cellular distribution (CHO cells [1]) | interaction of 2GFP constructs with importin-7 (importin-7) | localized in the nucleus (COS7 cells) [%] | anti pSPS Ab reaction with GFP-ERK2 after inhibitor pretreatment (SPS domain) | nuclear accumulation after TPA stimulation (CHO cells [2]; LMB 5 ng/ml + TPA 250 nM, 15 min) | nuclear translocation after leptomycin B (CHO cells [2]; LMB 5 ng/ml, 1 hr) |
| --- | --- | --- | --- | --- | --- | --- | --- |
| 2GFP-APA: 2GFP-WT with the Ser residues in the SPS domain mutated to Ala (LDQLNHILGILGAPAQEDL; also: fused to 2GFP (large carrier)) | more so | mainly in the cytoplasm and perinuclear region | reduced this interaction | 3 |  |  |  |
| 2GFP-EPE: 2GFP-WT with the Ser residues in the SPS domain mutated to Glu (LDQLNHILGILGEPEQEDL; also: fused to 2GFP (large carrier)) |  | mainly in the nucleus | elevated it | 90 |  |  |  |
| N#CC(=C(/N)Sc1ccccc1N)/C(C#N)=C(\N)Sc1ccccc1N [U0126, reference compound] |  |  |  |  | did not react |  |  |
| EPE-MEK1: GFP-MEK1 with residues 386 and 388 replaced with Glu |  |  |  |  |  | localized in the nucleus even without stimulation | increased |
